# Laboratory results taken from patent US5118705A, “Water soluble salts of purpuromycin and pharmaceutical formulations thereof” (Gruppo Lepetit S.p.A., priority 1990, dated 1992).
# Read-outs that look alike come from different tables or passages of the source.
# How the values were obtained:
# [1] = test system: Candida albicans ATCC 10231; experiment: Activity against Candida strains, two-fold dilution method; type: cell-based; settings: for MIC: Candida albicans, ATCC10231, 20 h
# Experimental: (§1) This set of experiments included also one strain each of two other Candida species, Candida tropicalis and Candida kruzei. The M.I.C. were determined by the two-fold dilution method in buffered (0.01 M phosphate buffer, pH 7.4) yeast nitrogen base medium (Difco) supplemented with 1.5 g/liter asparagine in microtiter trays. Inocula were approximately 10^4 colony forming units/ml. Incubation was for 20 h at 30° C. Purpuromycin was dissolved in DMSO and added to the cultures as above.
# [2] = test system: Candida albicans SKF 2270; experiment: as above; type: cell-based; settings: for MIC: Candida albicans, SKF2270, 20 h
# Experimental: as §1
# [3] = comparative tests, antibacterial agents, read-out: M.I.C.
# [4] = comparative tests, antibacterial agents
Compound,"MIC [1, 3] [µg/mL]","MIC [2, 3] [µg/mL]",MIC [1] [µg/mL],MIC [2] [µg/mL],further results
O=C(N[C@H](CO)[C@H](O)c1ccc([N+](=O)[O-])cc1)C(Cl)Cl [chloramphenicol],,,> 128,> 128,
CC[C@H]1OC(=O)[C@H](C)[C@@H](O[C@H]2C[C@@](C)(OC)[C@@H](O)[C@H](C)O2)[C@H](C)[C@@H](O[C@@H]2O[C@H](C)C[C@H](N(C)C)[C@H]2O)[C@](C)(O)C[C@@H](C)C(=O)[C@H](C)[C@@H](O)[C@]1(C)O [erythromycin],,,> 128,> 128,
CC1(C)S[C@@H]2[C@H](NC(=O)Cc3ccccc3)C(=O)N2[C@H]1C(=O)O [penicillin G],,,> 128,> 128,
CN[C@@H]1[C@H](O)[C@H](NC)[C@H]2O[C@@]3(O)C(=O)C[C@@H](C)O[C@H]3O[C@@H]2[C@H]1O [spectinomycin],> 128,> 128,,,
gentamicin,,,,,"M.I.C. [1, 4]: higher than 128 microgram/ml; M.I.C. [2, 4]: higher than 128 microgram/ml"

# Now from value to compound, other results behind:
"MIC [1, 3] [µg/mL]","MIC [2, 3] [µg/mL]",Compound,MIC [1] [µg/mL],MIC [2] [µg/mL],further results
> 128,> 128,CC1=C(C(=O)O)N2C(=O)[C@@H](NC(=O)[C@H](N)c3ccccc3)[C@H]2SC1 [cefalexin],,,
> 128,> 128,CO[C@@]1(NC(=O)Cc2cccs2)C(=O)N2C(C(=O)O)=C(COC(N)=O)CS[C@@H]21 [cefoxitin],,,
> 128,> 128,O=C(Cc1cccs1)N[C@@H]1C(=O)N2C(C(=O)[O-])=C(C[n+]3ccccc3)CS[C@H]12 [cephaloridine],,,
